Data on 1 molecule can be found in patent EP0438856A2, “Use of melatonin to protect the skin against the influence of UV-rays” (SHISEIDO COMPANY LIMITED, priority 1989, dated 1991).

One test deals with hairless mice. In kind it is in vivo, albino hairless mice. On the procedure:
Male albino hairless mice 8 weeks old (strain derived from Skh-HR-1, weight 25 - 35 g) were used, and one group consisted of 12 to 14 mice.
Melatonin (SIGMA Co.) was used as a suspension in 20% ethanol containing physiological saline, and administered by an intraperitoneal injection of 0.1 ml in doses at 3 levels of 0 mg, 1 mg, and 10 mg per day.
A Toshiba FL20-SE was mounted in a cage for irradiation, and irradiation was carried out at an irradiation intensity of 0.94 mW/cm², for 8 minutes per day, three times per week on alternate days for weeks. The irradiation was carried out 57 times, and the total irradiation dose was 25.7 J/cm². The administration of the sample was commenced simultaneously with the UV rays irradiation, and after the completion of the UV rays irradiation, the sample was administered continuously for an additional 10 weeks.
The size of the tumor generated was measured with slide calipers.
A t-examination was practiced for the number of tumors with sizes of 5 mm or more per one individual, and the number of tumors generated with sizes of 5 mm or more is shown in Fig. 2.

Test [1] concerns Fibroblasts derived from a human being. Briefly: Effect on cell damage caused by UV-rays irradiation (colony formation). In kind it is cell-based. Conditions: 100 mM melatonin in phosphate buffer, vs system without melatonin, p < 0.01, Fig. 1. The method, then:
Fibroblasts derived from a human being were seeded in a laboratory dish having a diameter of 6 cm, at 400 cells/laboratory dish, and were cultured in Eagle's MEM medium containing 10% fetal calf serum in an incubator at 5% CO₂ , at 37°C for 24 hours. After the medium was exchanged with a phosphate buffer containing 100 mM of melatonin (SIGMA Co.), it was irradiated by UVB (Toshiba FL-SE 20W) at 50 mJ/cm² or 100 mJ/cm², followed by a further culturing for 6 days. The culture was fixed with a 10% neutral formalin, stained with a 30-fold Gimza solution, and the colonies per laboratory dish were counted. The colonies of the irradiated group were divided by the colonies of the non-irradiated group, to measure the colony formation ratio. As a Control, a phosphate buffer containing no melatonin was added. In Fig. 1, (a) is the system containing no melatonin and (b) is the system containing 100 mM of melatonin. […] The risk ratio p becomes statistically significant at p < 0.05. Accordingly, it can be seen that melatonin has a protective effect against cell damage caused by UV-rays irradiation.

For the next test, the system named is tumors. Conditions: cited from earlier work.

As for `COc1ccc2[nH]cc(CCNC(C)=O)c2c1` [melatonin, N-acetyl-5-methoxytryptamine], the “protective effect against skin cancer” value in the test on hairless mice (group administered with 10 mg of melatonin per day, intraperitoneal) is “a protective effect against skin cancer was seen”. Moreover, the “generation and proliferation of tumors (number of tumors generated with sizes of 5 mm or more per one mouse)” value in the test on hairless mice (melatonin administered group (1 mg or 10 mg per day, intraperitoneal), UV irradiated, p < 0.05 on 23 days and 26 days and thereafter, Fig. 2) is “significantly suppressed”. Moreover, the colony formation ratio result in test [1] (UVB 50 mJ/cm²) and in test [1] (UVB 100 mJ/cm²) was “significantly higher colony formation ratio” throughout. Besides, the proliferation of tumors result with tumors (experimental leukemia, sarcoma, mammary tumors (literature reports)) is on record as “suppressing of a proliferation of tumors”. Further, the course of tumors result with tumors (mammary tumors (Hamilton, 1969) or lung cancer (Lapin and Ebels, 1976)) is reported as “tumors were worsened”.
